Data reported in PubChem BioAssay AID256 (DTP/NCI, 2004).
Where “and” joins values, the source holds several entries; their conditions need not be identical. Identical values can stand only once. Toxic doses and inconclusive results are not listed.

System: CD2F1 mice, L1210 leukemia ip, survival T/C
Experiment: NCI In Vivo Anticancer Drug Screen. Data for tumor model L1210 Leukemia (intraperitoneal) in CD2F1 (CDF1) mice
Settings: higher = longer survival
In short: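 Tumor-bearing mice (transplanted tumor) were split into treated and vehicle control groups, and the measured endpoint of each treated group was divided by that of its vehicle controls.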

[1] = endpoint: mean survival time, dose: 100.0 mg/kg/injection, schedule: Q01DX009 (ip), vehicle: saline with Tween-80
[2] = endpoint: mean survival time, dose: 200.0 mg/kg/injection, schedule: Q01DX009 (ip), vehicle: saline with Tween-80
[3] = endpoint: mean survival time, dose: 100.0 mg/kg/injection, schedule: Q04DX003 (ip), vehicle: saline with Tween-80
[4] = endpoint: mean survival time, dose: 200.0 mg/kg/injection, schedule: Q04DX003 (ip), vehicle: saline with Tween-80
[5] = endpoint: mean survival time, dose: 400.0 mg/kg/injection, schedule: Q01DX009 (ip), vehicle: saline with Tween-80
[6] = endpoint: mean survival time, dose: 400.0 mg/kg/injection, schedule: Q04DX003 (ip), vehicle: saline with Tween-80
[7] = endpoint: mean survival time, dose: 100.0 mg/kg/injection, schedule: Q04DX003 (ip), vehicle: saline

Structure (SMILES): CC1=CC(=Nc2ccc(N(CCCl)CCCl)cc2)C=C(C)C1=O
- T/C (endpoint: mean survival time, dose: 6.25 mg/kg/injection, schedule: Q01DX009 (ip), vehicle: Klucel (hydroxypropylcellulose) (HPC)): 115 % of control and 108 % of control
- T/C (endpoint: mean survival time, dose: 100.0 mg/kg/injection, schedule: Q01DX009 (ip), vehicle: Klucel (hydroxypropylcellulose) (HPC)): 86 % of control and 96 % of control

Structure (SMILES): C/C(=N\Nc1ccc2ccccc2n1)c1ccccc1O
- T/C (endpoint: mean survival time, dose: 100.0 mg/kg/injection, schedule: Q04DX002 (ip), vehicle: saline with Tween-80): 98 % of control
- T/C (endpoint: mean survival time, dose: 200.0 mg/kg/injection, schedule: Q04DX002 (ip), vehicle: saline with Tween-80): 98 % of control
- T/C (endpoint: mean survival time, dose: 400.0 mg/kg/injection, schedule: Q04DX002 (ip), vehicle: saline with Tween-80): 110 % of control

Structure (SMILES): NC(Cc1ccccc1)C(=O)OCN1C(=O)C2C3C=CC(C2C1=O)C1C2C(=O)N(COC(=O)C(N)Cc4ccccc4)C(=O)C2C31 (stereo unspecified)
- T/C (endpoint: median survival time, dose: 21.6 mg/kg/injection, schedule: Q01DX009 (ip), vehicle: water): 116 % of control
- T/C (endpoint: median survival time, dose: 36.0 mg/kg/injection, schedule: Q01DX009 (ip), vehicle: water): 117 % of control
- T/C (endpoint: median survival time, dose: 100.0 mg/kg/injection, schedule: Q01DX009 (ip), vehicle: water): 188 % of control

Structure (SMILES): CCCCCCCCCCCCCCCC(=O)NCCNC(=O)CCCCCCCCCCCCCCC
- T/C (endpoint: mean survival time, dose: 50.0 mg/kg/injection, schedule: Q01DX009 (ip), vehicle: saline with Tween-80): 92 % of control
- T/C (endpoint: mean survival time, dose: 75.0 mg/kg/injection, schedule: Q01DX001 (ip), vehicle: saline): 98 % of control
- T/C [1]: 90 % of control
- T/C (endpoint: mean survival time, dose: 150.0 mg/kg/injection, schedule: Q01DX001 (ip), vehicle: saline): 93 % of control
- T/C [2]: 94 % of control
- T/C (endpoint: mean survival time, dose: 300.0 mg/kg/injection, schedule: Q01DX001 (ip), vehicle: saline): 98 % of control

Structure (SMILES): C=CCOCC(O)CN(CCCC)CCCC (stereo unspecified)
- T/C (endpoint: mean survival time, dose: 25.0 mg/kg/injection, schedule: Q04DX003 (ip), vehicle: saline with Tween-80): 104 % of control
- T/C (endpoint: mean survival time, dose: 50.0 mg/kg/injection, schedule: Q04DX003 (ip), vehicle: saline with Tween-80): 106 % of control
- T/C [3]: 90 % of control and 110 % of control

Structure (SMILES): CN1CCCC1CCNc1nc(C(Cl)(Cl)Cl)nc2cc(Cl)ccc12 (stereo unspecified)
- T/C [1]: 98 % of control
- T/C [3]: 95 % of control
- T/C [2]: 98 % of control
- T/C [4]: 90 % of control
- T/C [5]: 101 % of control
- T/C [6]: 100 % of control

Structure (SMILES): CCn1c(C)[n+](CC)c2ccc(C(C)=O)cc21
- T/C (endpoint: mean survival time, dose: 25.0 mg/kg/injection, schedule: Q04DX003 (ip), vehicle: saline): 104 % of control
- T/C (endpoint: mean survival time, dose: 50.0 mg/kg/injection, schedule: Q04DX003 (ip), vehicle: saline): 108 % of control
- T/C [7]: 106 % of control

Structure (SMILES): CC1CN(C)CCN1C (stereo unspecified)
- T/C (endpoint: mean survival time, dose: 100.0 mg/kg/injection, schedule: Q01DX009 (ip), vehicle: saline): 100 % of control
- T/C [7]: 104 % of control
- T/C (endpoint: mean survival time, dose: 200.0 mg/kg/injection, schedule: Q01DX009 (ip), vehicle: saline): 100 % of control
- T/C (endpoint: mean survival time, dose: 200.0 mg/kg/injection, schedule: Q04DX003 (ip), vehicle: saline): 104 % of control
- T/C (endpoint: mean survival time, dose: 400.0 mg/kg/injection, schedule: Q01DX009 (ip), vehicle: saline): 98 % of control
- T/C (endpoint: mean survival time, dose: 400.0 mg/kg/injection, schedule: Q04DX003 (ip), vehicle: saline): 98 % of control

Structure (SMILES): Cc1cc(NC(C)CN(C)C)nc(/N=C(\N)Nc2ccc(Cl)c(Cl)c2)n1 (stereo unspecified)
- T/C [3]: 96 % of control

Structure (SMILES): Cc1cc2c(cc1C)N(C(=O)CN1CCCCC1)CC(=O)N2
- T/C (endpoint: mean survival time, dose: 75.0 mg/kg/injection, schedule: Q04DX003 (ip), vehicle: saline): 94 % of control
- T/C (endpoint: mean survival time, dose: 150.0 mg/kg/injection, schedule: Q04DX003 (ip), vehicle: saline): 89 % of control

Structure (SMILES): CC1=NN(c2ccccc2)C(=O)C1CC1C(=O)N(c2ccccc2)N=C1C (stereo unspecified)
- T/C [1]: 101 % of control
- T/C [3]: 96 % of control
- T/C [2]: 107 % of control
- T/C [4]: 92 % of control
- T/C [5]: 101 % of control
- T/C [6]: 88 % of control

Structure (SMILES): C/C(=C\Cl)CN(C)C
- T/C (endpoint: mean survival time, dose: 50.0 mg/kg/injection, schedule: Q01DX009 (ip), vehicle: acetone): 97 % of control
- T/C (endpoint: mean survival time, dose: 100.0 mg/kg/injection, schedule: Q01DX009 (ip), vehicle: acetone): 103 % of control

Structure (SMILES): O=C1NC(=NC2CCCCC2)C2(CCN(CC3COc4ccccc4O3)CC2)N1c1ccccc1 (stereo unspecified)
- T/C (endpoint: mean survival time, dose: 100.0 mg/kg/injection, schedule: Q01DX001 (ip), vehicle: saline with Tween-80): 91 % of control
- T/C (endpoint: mean survival time, dose: 200.0 mg/kg/injection, schedule: Q01DX001 (ip), vehicle: saline with Tween-80): 95 % of control
- T/C (endpoint: mean survival time, dose: 400.0 mg/kg/injection, schedule: Q01DX001 (ip), vehicle: saline with Tween-80): 101 % of control
